The values that follow come from patent US20220282217A1, “COMPOSITIONS AND METHODS FOR PREPARING T CELL COMPOSITIONS AND USES THEREOF” (priority 2019, published 2022).

Experiment [1] addresses HLA-A02.01 (Homo sapiens, UniProt P04439, D140Y/D185E/D98H/E176V/E277Q/G131W/G231S/I119V/I121R/I166T/I218V/L300P/L318F/N151K/N90K/P208A/P217A/Q86G/Q94H/R138H/R169H/T345S). Nature of the experiment: Class I MHC peptide binding affinity (displacement of radiolabeled reference peptide). Conditions: for IC50: (nM)), allele A02.01. The essentials:
(§1)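 MHC class I complexes were loaded with a radiolabeled reference peptide, then exposed to test peptides over a range of concentrations for 2 days. Reference peptide still bound to the complexes was quantified by size-exclusion gel filtration.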

Experiment [2] concerns the target HLA-A01.01 (Homo sapiens, UniProt P04439, A114D/A174V/A182V/D101N/D185E/E176A/E190D/L180R/Q94H/R68K/S129P/T187R/V100A/V91M/W191G). The description is as above. As to conditions: for IC50: (nM)), allele A01.01. Summed up: as §1
In experiment [3] the target is T1, HLA-B07.02 (Homo sapiens, UniProt P01889). Briefly: Class I MHC peptide binding stability (pMHC-I dissociation, 125I-labeled light chain). The arrangement: made in house; host or cells: E. coli. Conditions: Allele B07.02.
The target of experiment [4] is T2, HLA-A02.01 (Homo sapiens, UniProt P04439, D140Y/D185E/D98H/E176V/E277Q/G131W/G231S/I119V/I121R/I166T/I218V/N151K/N90K/P208A/P217A/Q86G/Q94H/R138H/R169H).
T2 construct: made in house; host or cells: E. coli
Described as above. As to conditions: allele A02.01.

The test system of experiment [5] is HLA-A24.02. Described as above. The arrangement: species or system human. As to conditions: for Stability (T1/2 (h)): allele A24.02.
Experiment [6] addresses HLA-A24.02. Nature of the experiment: Class I MHC peptide binding affinity (displacement of radiolabeled reference peptide). The arrangement: species or system human.
Experiment [7] concerns the target T1, HLA-B07.02. The experiment is described as above. As to conditions: Allele B07.02; read-out: Observed Affinity (IC50; (nM)).
Experiment [8] addresses HLA-A03.01 (Homo sapiens, UniProt P04439). The description is as above. As to conditions: allele A03.01; read-out: Observed Affinity (IC50; (nM)).
Where [9] appears, read: read-out: Observed Affinity (IC50.
Where [10] appears, read: allele A24.02, read-out: Observed Affinity (IC50, (nM)).

Where “and” joins values, the source holds several entries; their conditions need not be identical. Identical values can stand only once. Like-named read-outs stand apart in the source and are kept apart here. Where a SMILES comes first, the peptide text is derived from it.

For orientation: Kd means the constant that tells how readily two partners part at equilibrium. Take `CC[C@H](C)[C@H](NC(=O)[C@H](CC(C)C)NC(=O)[C@H](CCC(N)=O)NC(=O)[C@@H](NC(=O)[C@@H](NC(=O)[C@H](CO)NC(=O)[C@@H](NC(=O)[C@H](CC(C)C)NC(=O)[C@@H](N)CS)[C@@H](C)O)[C@@H](C)O)C(C)C)C(=O)N[C@@H](CCSC)C(=O)O`: the Kd worked out at 537 nM in experiment [1] and 8280 nM in experiment [2]. Moreover, the IC50 turned out to be 716 nM in experiment [1] (Observed Affinity (IC50) and 11000 nM in experiment [2] (Observed Affinity (IC50).

Take `C[C@H](NC(=O)[C@H](CO)NC(=O)[C@H](C)NC(=O)[C@@H]1CCCN1C(=O)[C@H](C)NC(=O)[C@@H]1CCCN1C(=O)[C@H](CCCNC(=N)N)NC(=O)[C@@H]1CCCN1C(=O)[C@@H](N)Cc1c[nH]cn1)C(=O)O`: in experiment [3], the “Stability (T1/2 (h))” value was 4.9 h.

As for `CSCC[C@H](NC(=O)[C@H](CC(C)C)NC(=O)[C@@H](N)CCCCN)C(=O)N[C@@H](CC(C)C)C(=O)N[C@@H](CC(C)C)C(=O)N[C@@H](CCCNC(=N)N)C(=O)N[C@@H](CC(C)C)C(=O)N[C@@H](CC(N)=O)C(=O)N[C@@H](CC(C)C)C(=O)O`, the IC50 in experiment [1] (setting [9]) is 17 nM and 2.6 nM. In addition, the “Stability (T1/2 (h))” value in experiment [3] is on record as 1.5 h; in experiment [4], 16.9 h.

In the case of `CC(C)C[C@H](N)C(=O)N1CCC[C@H]1C(=O)N[C@@H](CCCNC(=N)N)C(=O)N[C@@H](CCCCN)C(=O)N1CCC[C@H]1C(=O)N[C@H](C(=O)N[C@@H](CCCNC(=N)N)C(=O)N[C@@H](C)C(=O)N[C@@H](C)C(=O)O)[C@@H](C)O`, the “Stability (T1/2 (h))” value in experiment [3] is given as 5.5 h.

For the compound `CC[C@H](C)[C@H](NC(=O)[C@@H]1CCCN1C(=O)[C@H](CC(C)C)NC(=O)[C@H](Cc1ccccc1)NC(=O)[C@H](CC(C)C)NC(=O)[C@H](CO)NC(=O)[C@H](CC(=O)O)NC(=O)[C@@H](NC(=O)[C@H](CC(C)C)NC(=O)[C@@H](N)CCSC)[C@@H](C)O)C(=O)O`, the IC50 in experiment [2] (setting [9]) was found to be 7670 nM. In experiment [4], the “Stability (T1/2 (h))” value was determined as 1 h.

As for `CC[C@H](C)[C@H](NC(=O)[C@H](CO)NC(=O)[C@H](Cc1c[nH]c2ccccc12)NC(=O)[C@H](Cc1c[nH]cn1)NC(=O)[C@H](C)NC(=O)[C@@H]1CCCN1C(=O)[C@H](CCSC)NC(=O)[C@H](CC(C)C)NC(=O)[C@@H](N)CO)C(=O)O`, the IC50 was 48 nM in experiment [1] (setting [9]) and 633 nM in experiment [6] (setting [10]). The “Stability (T1/2 (h))” value in experiment [5] is given as 0.4 h; in experiment [4] it was 5 h.

On to `CC(C)C[C@H](NC(=O)[C@H](CC(C)C)NC(=O)[C@H](CC(C)C)NC(=O)CNC(=O)[C@H](Cc1ccc(O)cc1)NC(=O)[C@H](CC(C)C)NC(=O)[C@@H]1CCCN1C(=O)[C@@H](NC(=O)[C@@H](N)C(C)C)C(C)C)C(=O)O`, for which the IC50 in experiment [1] (setting [9]) is 1040 nM; in experiment [6] (setting [10]), 658 nM. The “Stability (T1/2 (h))” value in experiment [5] is 0.8 h; in experiment [4] it was 0.6 h.

In the case of `CC(C)C[C@H](NC(=O)[C@H](C)N)C(=O)N[C@@H](CO)C(=O)N[C@@H](C)C(=O)N[C@@H](CO)C(=O)N[C@@H](CC(N)=O)C(=O)N[C@@H](CO)C(=O)N[C@@H](CS)C(=O)N[C@@H](Cc1ccccc1)C(=O)O` (H-ALSASNSCF-OH; N-terminus and C-terminus assumed), the IC50 in experiment [1] (setting [9]) came out at 728 nM; in experiment [7] it was 684 nM; in experiment [6] (setting [10]), 16300 nM. Further, the “Stability (T1/2 (h))” value in experiment [5] was 0.2 h; in experiment [4], 0.3 h.

On to `CC(C)C[C@H](NC(=O)[C@H](Cc1ccccc1)NC(=O)[C@H](CO)NC(=O)[C@H](CC(C)C)NC(=O)[C@@H](N)CS)C(=O)N[C@@H](CO)C(=O)N[C@@H](CO)C(=O)N[C@@H](Cc1c[nH]c2ccccc12)C(=O)N[C@@H](CC(=O)O)C(=O)N[C@@H](Cc1ccc(O)cc1)C(=O)O` (H-CLSFLSSWDY-OH; N-terminus and C-terminus assumed), for which the IC50 in experiment [2] (setting [9]) was 987 nM; in experiment [8] it was 2710 nM.

Regarding `CSCC[C@H](NC(=O)[C@H](Cc1ccc(O)cc1)NC(=O)[C@@H](N)CCC(=O)O)C(=O)N[C@@H](C)C(=O)N[C@@H](CC(N)=O)C(=O)NCC(=O)N[C@@H](CO)C(=O)N[C@@H](CC(C)C)C(=O)N[C@@H](CC(C)C)C(=O)O` (H-EYMANGSLL-OH; N-terminus and C-terminus assumed), the “Stability (half-life (hr.))” value in experiment [5] (BTK C481S peptide, HLA Allele A24.02) was determined as 5.716 h. Further, the IC50 in experiment [6] (BTK C481S peptide, HLA Allele A24.02, read-out: Affinity) worked out at 4.96 nM; in experiment [6] (setting [10]), 5 nM.

Take `CC(C)[C@H](NC(=O)[C@H](CO)NC(=O)[C@@H](NC(=O)[C@@H](NC(=O)[C@H](C)NC(=O)[C@H](C)NC(=O)[C@H](CCCNC(=N)N)NC(=O)[C@@H](NC(=O)[C@@H]1CCCN1C(=O)[C@@H](N)CCCCN)[C@@H](C)O)[C@@H](C)O)C(C)C)C(=O)O` (H-KPTRAATVSV-OH; N-terminus and C-terminus assumed): the IC50 in experiment [7] turned out to be 8 nM. Also, the “Stability (T1/2 (h))” value in experiment [3] worked out at 3 h.

Take `CC(C)C[C@H](N)C(=O)N1CCC[C@H]1C(=O)N[C@@H](CCCNC(=N)N)C(=O)N[C@@H](CCCCN)C(=O)N1CCC[C@H]1C(=O)N[C@H](C(=O)N[C@@H](CCCNC(=N)N)C(=O)N[C@@H](C)C(=O)N[C@@H](C)C(=O)N[C@H](C(=O)O)[C@@H](C)O)[C@@H](C)O` (H-LPRKPTRAAT-OH; N-terminus and C-terminus assumed): the IC50 in experiment [7] stood at 3 nM. Also, the “Stability (T1/2 (h))” value in experiment [3] was determined as 3.7 h.

In the case of `CC[C@H](C)[C@H](NC(=O)[C@@H](NC(=O)[C@H](CC(C)C)NC(=O)[C@@H](NC(=O)[C@@H]1CCCN1C(=O)[C@H](CCCNC(=N)N)NC(=O)[C@H](Cc1c[nH]c2ccccc12)NC(=O)[C@H](CC(N)=O)NC(=O)[C@@H](N)CCSC)[C@@H](C)CC)[C@@H](C)O)C(=O)O` (H-MNWRPILTI-OH; N-terminus and C-terminus assumed), the values for the IC50 in experiment [1] (setting [9]) and in experiment [6] (setting [10]) were 516 nM and 6980 nM, respectively. The “Stability (T1/2 (h))” value was determined as 0.2 h in experiment [5] and 3.8 h in experiment [4].

On to `CSCC[C@H](NC(=O)[C@H](CCC(=O)O)NC(=O)[C@H](CC(C)C)NC(=O)[C@H](CC(C)C)NC(=O)[C@H](CC(C)C)NC(=O)CNC(=O)[C@H](Cc1ccc(O)cc1)NC(=O)[C@H](CC(C)C)NC(=O)[C@@H]1CCCN1)C(=O)N[C@@H](CC(C)C)C(=O)O` (H-PLYGLLLEML-OH; N-terminus and C-terminus assumed), for which the IC50 in experiment [1] (setting [9]) was determined as 797 nM; in experiment [6] (setting [10]), 444 nM. Moreover, the “Stability (T1/2 (h))” value in experiment [5] worked out at 6.3 h.

Turning to `CC[C@H](C)[C@H](NC(=O)[C@H](CCCCN)NC(=O)[C@H](C)NC(=O)[C@@H](NC(=O)[C@@H](N)CCCNC(=N)N)C(C)C)C(=O)N[C@@H](C)C(=O)N[C@@H](CC(=O)O)C(=O)N[C@@H](Cc1ccccc1)C(=O)NCC(=O)N[C@@H](CCSC)C(=O)O` (H-RVAKIADFGM-OH; N-terminus and C-terminus assumed), the IC50 was found to be 125 nM in experiment [1] (setting [9]) and 9720 nM in experiment [7]. Besides, the results for the “Stability (T1/2 (h))” value in experiment [3] and in experiment [4] were 0.2 h and 0.5 h, respectively.

For `CC(C)C[C@H](NC(=O)[C@H](CC(C)C)NC(=O)[C@H](CC(C)C)NC(=O)[C@H](CC(=O)O)NC(=O)[C@H](CS)NC(=O)[C@H](CC(C)C)NC(=O)[C@@H]1CCCN1C(=O)[C@@H](NC(=O)[C@@H](N)C(C)C)C(C)C)C(=O)O` (H-VVPLCDLLL-OH; N-terminus and C-terminus assumed), the IC50 in experiment [1] (setting [9]) is 1200 nM; in experiment [6] (setting [10]), 3890 nM. Moreover, the “Stability (T1/2 (h))” value in experiment [5] is listed as 0.4 h.

`CC(C)C[C@H](NC(=O)[C@H](CC(C)C)NC(=O)[C@H](CC(C)C)NC(=O)[C@H](CC(=O)O)NC(=O)[C@H](CO)NC(=O)[C@H](CC(C)C)NC(=O)[C@@H]1CCCN1C(=O)[C@@H](NC(=O)[C@@H](N)C(C)C)C(C)C)C(=O)O` (H-VVPLSDLLL-OH; N-terminus and C-terminus assumed): the IC50 in experiment [1] (setting [9]) amounted to 2550 nM; in experiment [6] (setting [10]), 8250 nM. In addition, the “Stability (T1/2 (h))” value in experiment [5] came to 0.5 h.

As to `CC[C@H](C)[C@H](NC(=O)[C@H](CC(=O)O)NC(=O)[C@H](Cc1ccccc1)NC(=O)[C@H](CC(C)C)NC(=O)[C@@H](NC(=O)[C@H](CCC(=O)O)NC(=O)[C@@H](NC(=O)[C@H](CCSC)NC(=O)[C@@H](N)Cc1c[nH]c2ccccc12)[C@@H](C)O)[C@@H](C)O)C(=O)N[C@H](C(=O)O)C(C)C` (H-WMTETLFDIV-OH; N-terminus and C-terminus assumed), the IC50 stood at 40 nM in experiment [1] (setting [9]) and 14400 nM in experiment [2] (setting [9]). Further, the “Stability (T1/2 (h))” value in experiment [4] is listed as 0.4 h.

Consider `CC(C)C[C@H](NC(=O)[C@H](C)NC(=O)[C@@H](NC(=O)[C@H](CCCNC(=N)N)NC(=O)[C@H](CO)NC(=O)[C@H](CC(=O)O)NC(=O)[C@H](CO)NC(=O)[C@H](CC(C)C)NC(=O)[C@@H](N)CCCCN)[C@@H](C)O)C(=O)O` [KLSDSRTAL], for which the results for the “Stability (T1/2 (h))” value in experiment [3] and in experiment [4] were 6.8 h and 2.8 h, respectively.
